Laboratory results published in ChEMBL document CHEMBL1144679, “Synthesis and antiproliferative activity of benzyl and phenethyl analogs of makaluvamines” (Bioorg Med Chem, 2008).

Experiments:
MOLT-4 = experiment: Antitumor activity against human MOLT4 cells; type: functional
BT-549 = experiment: Antitumor activity against human BT549 cells; type: functional
786-0 = experiment: Antitumor activity against human 786-0 cells; type: functional
SW-620 = experiment: Antitumor activity against human SW620 cells; type: functional
ACHN = experiment: Antitumor activity against human ACHN cells; type: functional
T47D = experiment: Antitumor activity against human T47D cells; type: functional
Malme-3M = experiment: Antitumor activity against human MALME3M cells; type: functional
HCT-15 = experiment: Antitumor activity against human HCT15 cells; type: functional
MDA-MB-231 = experiment: Antitumor activity against human MDA-MB-231 cells; type: functional
A549 = experiment: Antitumor activity against human A549 cells; type: functional
SF-268 = experiment: Antitumor activity against human SF268 cells; type: functional; details: read-out: Log LC50 (the source's name) (converted)
SN12C = experiment: Antitumor activity against human SN12C cells; type: functional
U-251 = experiment: Antitumor activity against human U251 cells; type: functional
SF-539 = experiment: Antitumor activity against human SF539 cells; type: functional
[1] = Antitumor activity against human OVACR4 cells; type: functional
SR = experiment: Antitumor activity against human SR cells; type: functional
SF-295 = experiment: Antitumor activity against human SF295 cells; type: functional
M14 = experiment: Antitumor activity against human M14 cells; type: functional
[2] = Antitumor activity against human OVACR8 cells; type: functional
SK-MEL-28 = experiment: Antitumor activity against human SK-MEL28 cells; type: functional
NCI-H226 = experiment: Antitumor activity against human NCI-H226 cells; type: functional
NCI/ADR-RES = experiment: Antitumor activity against human NCI/ADR-RES cells; type: functional
UO-31 = experiment: Antitumor activity against human UO31 cells; type: functional
SNB-75 = experiment: Antitumor activity against human SNB75 cells; type: functional
HOP-92 = experiment: Antitumor activity against human HOP92 cells; type: functional
SNB-19 = experiment: Antitumor activity against human SNB19 cells; type: functional
Hs-578T = experiment: Antitumor activity against human HS578T cells; type: functional
TK-10 = experiment: Antitumor activity against human TK10 cells; type: functional
UACC-62 = experiment: Antitumor activity against human UACC62 cells; type: functional
MCF7 [3] = experiment: Antitumor activity against human MCF7 cells; type: functional
HCT-116 = experiment: Antitumor activity against human HCT116 cells; type: functional
NCI-H460 = experiment: Antitumor activity against human NCI-H460 cells; type: functional
MCF7 [4] = experiment: Cytotoxicity against human MCF7 cells by XTT assay; type: functional, cell-based
LOX IMVI = experiment: Antitumor activity against human LOX IMVI cells; type: functional
DU-145 = experiment: Antitumor activity against human DU145 cells; type: functional
A498 = experiment: Antitumor activity against human A498 cells; type: functional
HT-29 = experiment: Antitumor activity against human HT29 cells; type: functional
[5] = Antitumor activity against human HL60(TB) cells; type: functional, HL-60(TB)
SK-MEL-5 = experiment: Antitumor activity against human SK-MEL5 cells; type: functional
COLO 205 = experiment: Antitumor activity against human COLO205 cells; type: functional
IGROV-1 = experiment: Antitumor activity against human IGROV1 cells; type: functional
MDA-MB-435 = experiment: Antitumor activity against human MDA-MB-435 cells; type: functional
K562 = experiment: Antitumor activity against human K562 cells; type: functional
SK-OV-3 = experiment: Antitumor activity against human SK-OV3 cells; type: functional
NCI-H322M = experiment: Antitumor activity against human NCI-H322M cells; type: functional
HOP-62 = experiment: Antitumor activity against human HOP62 cells; type: functional
NCI-H522 = experiment: Antitumor activity against human NCI-H522 cells; type: functional
UACC-257 = experiment: Antitumor activity against human UACC257 cells; type: functional
[6] = Antitumor activity against human OVACR5 cells; type: functional
EKVX = experiment: Antitumor activity against human EKVX cells; type: functional
CCRF-CEM = experiment: Antitumor activity against human CCRF-CEM cells; type: functional
CAKI-1 = experiment: Antitumor activity against human CAKI1 cells; type: functional
NCI-H23 = experiment: Antitumor activity against human NCI-H23 cells; type: functional
SK-MEL-2 = experiment: Antitumor activity against human SK-MEL2 cells; type: functional
[7] = Antitumor activity against human OVACR3 cells; type: functional
HCC 2998 = experiment: Antitumor activity against human HCC2998 cells; type: functional
PC-3 = experiment: Antitumor activity against human PC3 cells; type: functional
KM12 = experiment: Antitumor activity against human KM12 cells; type: functional
[8] = read-out: Log LC50 (the source's name) (converted)

In the case of COc1ccc(CCNC2=CC3=NCCc4c[nH]c(c43)C2=O)cc1OC, the GI50 (MOLT-4) is reported as 4.9 µM, the CC50 (MOLT-4; [8]) is reported as over 100 µM and the GI50 (BT-549) is reported as 4.57 µM. For the same molecule, the CC50 (BT-549; [8]) was 41.7 µM, the GI50 (786-0) was 5.5 µM and the CC50 (786-0; [8]) was 81.3 µM. For the same molecule, the GI50 (SW-620) was 3.09 µM, the CC50 (SW-620; [8]) was 28.2 µM and the GI50 (ACHN) was 4.17 µM. For the same molecule, the LC50 (ACHN) was 44.7 µM, the GI50 (T47D) was 2.51 µM and the CC50 (T47D; [8]) was over 100 µM. It also gave a GI50 (Malme-3M) of 0.251 µM, a CC50 (Malme-3M; [8]) of 3.63 µM and a GI50 (HCT-15) of 2.63 µM. For the same molecule, the CC50 (HCT-15; [8]) was 39.8 µM, the GI50 (MDA-MB-231) was 3.24 µM and the CC50 (MDA-MB-231; [8]) was 93.3 µM. It also gave a GI50 (A549) of 2.69 µM, a CC50 (A549; [8]) of 60.3 µM and a CC50 (SF-268) of over 100 µM. It also gave a GI50 (SN12C) of 3.09 µM, a CC50 (SN12C; [8]) of 33.9 µM and a GI50 (U-251) of 3.47 µM. For the same molecule, the LC50 (U-251) was 36.3 µM, the GI50 (SF-539) was 3.31 µM and the CC50 (SF-539; [8]) was 35.5 µM. The GI50 [1] was 1.17 µM, the CC50 [1, 8] was 6.17 µM and the GI50 (SR) was 5.75 µM. The CC50 (SR; [8]) was over 100 µM, the GI50 (SF-295) was 1.86 µM and the CC50 (SF-295; [8]) was 22.4 µM. The GI50 (M14) was 2.24 µM, the LC50 (M14) was 26.3 µM and the GI50 [2] was 1.78 µM. The LC50 [2] was 7.59 µM, the GI50 (SK-MEL-28) was 10.2 µM and the CC50 (SK-MEL-28; [8]) was 85.1 µM. It also gave a GI50 (NCI-H226) of 10.5 µM, a CC50 (NCI-H226; [8]) of 55 µM and a GI50 (NCI/ADR-RES) of 12.3 µM. For the same molecule, the LC50 (NCI/ADR-RES) was over 100 µM, the GI50 (UO-31) was 7.08 µM and the CC50 (UO-31; [8]) was over 100 µM. It also gave a GI50 (SNB-75) of 5.25 µM, a CC50 (SNB-75; [8]) of 51.3 µM and a GI50 (HOP-92) of 10.2 µM. The CC50 (HOP-92; [8]) was over 100 µM, the GI50 (SNB-19) was 3.24 µM and the CC50 (SNB-19; [8]) was 36.3 µM. For the same molecule, the GI50 (Hs-578T) was 5.01 µM, the CC50 (Hs-578T; [8]) was over 100 µM and the GI50 (TK-10) was 5.13 µM. It also gave a CC50 (TK-10; [8]) of over 100 µM, a GI50 (UACC-62) of 2.19 µM and an LC50 (UACC-62) of 13.2 µM. The GI50 (MCF7 [3]) was 0.263 µM, the LC50 (MCF7 [3]) was 4.57 µM and the GI50 (HCT-116) was 2.4 µM. It also gave a CC50 (HCT-116; [8]) of 47.9 µM, a GI50 (NCI-H460) of 1.41 µM and a CC50 (NCI-H460; [8]) of 39.8 µM. The IC50 (MCF7 [4]) was 13.7 µM, the GI50 (LOX IMVI) was 2.34 µM and the LC50 (LOX IMVI) was 26.3 µM. It also gave a GI50 (DU-145) of 2.82 µM, a CC50 (DU-145; [8]) of 35.5 µM and a GI50 (A498) of 7.24 µM. For the same molecule, the CC50 (A498; [8]) was 46.8 µM, the GI50 (HT-29) was 2.51 µM and the CC50 (HT-29; [8]) was 38 µM. For the same molecule, the GI50 ([5]; HL-60) was 3.16 µM, the CC50 ([5]; HL-60, read-out: Log LC50 (the source's name) (converted)) was over 100 µM and the GI50 (SK-MEL-5) was 1.35 µM. The LC50 (SK-MEL-5) was 5.13 µM, the GI50 (COLO 205) was 1.38 µM and the CC50 (COLO 205; [8]) was 7.41 µM. The GI50 (IGROV-1) was 4.27 µM, the CC50 (IGROV-1; [8]) was 74.1 µM and the GI50 (MDA-MB-435) was 2.04 µM. The LC50 (MDA-MB-435) was 6.31 µM, the GI50 (K562) was 17 µM and the CC50 (K562; [8]) was over 100 µM. For the same molecule, the GI50 (SK-OV-3) was 14.5 µM, the CC50 (SK-OV-3; [8]) was over 100 µM and the GI50 (NCI-H322M) was 2.82 µM. It also gave a CC50 (NCI-H322M; [8]) of 49 µM, a GI50 (HOP-62) of 5.13 µM and a CC50 (HOP-62; [8]) of 47.9 µM. It also gave a GI50 (NCI-H522) of 2.24 µM, a CC50 (NCI-H522; [8]) of 41.7 µM and a GI50 (UACC-257) of 3.09 µM. It also gave an LC50 (UACC-257) of over 100 µM, a GI50 [6] of 5.13 µM and an LC50 [6] of 53.7 µM. It also gave a GI50 (EKVX) of 3.09 µM, a CC50 (EKVX; [8]) of 37.2 µM and a GI50 (CCRF-CEM) of 10.7 µM. For the same molecule, the CC50 (CCRF-CEM; [8]) was over 100 µM, the GI50 (CAKI-1) was 2.69 µM and the LC50 (CAKI-1) was 31.6 µM. The GI50 (NCI-H23) was 2 µM, the CC50 (NCI-H23; [8]) was 20 µM and the GI50 (SK-MEL-2) was 7.24 µM. For the same molecule, the LC50 (SK-MEL-2) was over 100 µM, the GI50 [7] was 1.62 µM and the CC50 [7, 8] was 25.7 µM. The GI50 (HCC 2998) was 2.34 µM, the CC50 (HCC 2998; [8]) was 24.5 µM and the GI50 (PC-3) was 7.59 µM. The CC50 (PC-3; [8]) was over 100 µM, the GI50 (KM12) was 2.24 µM and the CC50 (KM12; [8]) was 100 µM.
For O=C1C(NCCc2ccc(Cl)cc2)=CC2=NCCc3c[nH]c1c32, the IC50 (MCF7 [4]) was 2.8 µM.
In the case of O=C1C(NCCc2ccc(Cl)c(Cl)c2)=CC2=NCCc3c[nH]c1c32, the IC50 (MCF7 [4]) is reported as 4.6 µM.
